Data set [1] is described as follows: Selectivity for Plasmodium falciparum recombinant DHODH over human recombinant DHODH.
Data set [2] deals with Dihydroorotate dehydrogenase (quinone), mitochondrial (Homo sapiens, UniProt Q02127). Nature of the data set: Inhibition of human recombinant DHODH.
The subject of data set [3] is T1, Dihydroorotate dehydrogenase (quinone), mitochondrial (Plasmodium falciparum (isolate 3D7)), Q08210 [F188A].
T1 sequence (whole entry): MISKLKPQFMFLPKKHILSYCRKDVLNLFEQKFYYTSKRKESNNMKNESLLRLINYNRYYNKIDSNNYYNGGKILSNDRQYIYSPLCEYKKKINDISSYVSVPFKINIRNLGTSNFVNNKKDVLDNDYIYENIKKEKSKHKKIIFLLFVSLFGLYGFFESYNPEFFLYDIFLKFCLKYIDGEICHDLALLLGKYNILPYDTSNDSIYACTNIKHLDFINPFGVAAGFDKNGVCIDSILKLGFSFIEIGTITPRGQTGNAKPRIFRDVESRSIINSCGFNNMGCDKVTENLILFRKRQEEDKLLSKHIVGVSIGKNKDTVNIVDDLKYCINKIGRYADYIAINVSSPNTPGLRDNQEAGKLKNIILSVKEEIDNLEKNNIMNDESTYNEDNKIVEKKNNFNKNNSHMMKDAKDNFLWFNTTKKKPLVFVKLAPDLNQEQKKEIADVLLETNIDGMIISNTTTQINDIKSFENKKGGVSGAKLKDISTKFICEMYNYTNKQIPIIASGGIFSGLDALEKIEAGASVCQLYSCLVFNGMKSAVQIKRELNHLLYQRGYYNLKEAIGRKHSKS
Nature of the data set: Inhibition of Plasmodium falciparum DHODH F188A mutant.

Data set [4] concerns the target T2, Dihydroorotate dehydrogenase (Plasmodium falciparum, UniProt Q54A96).
T2 sequence (Q54A96 whole entry): T1 sequence (whole entry) with A188F
Put plainly: (§1) Inhibition of recombinant Plasmodium falciparum DHODH.

Data set [5] addresses T3, Dihydroorotate dehydrogenase (Plasmodium falciparum) (UniProt Q54A96).
T3 sequence (whole entry): T1 sequence (whole entry) with A188F
Nature of the data set: Inhibition of recombinant Plasmodium falciparum DHODH at 10 uM.

The test system of a further data set is Plasmodium falciparum. Nature of the data set: Antimalarial activity against Plasmodium falciparum NF54 3D7 after 48 hrs. The data set is classed as functional, organism-based. The following applies: NF54/3D7, 48 h.
Compound in data set [6]: O=C1CC(C(=O)O)NC(=O)N1
The description is as §1.

Compound in data set [7]: CCCCCCCCCCC1=C(C)C(=O)C(OC)=C(OC)C1=O
Described as §1.

Substitutions are numbered along the chain they refer to. Activity calls are given as the source filed them. No cut-off for these calls is given here.

Chain of Dihydroorotate dehydrogenase (quinone), mitochondrial (Q02127 whole entry): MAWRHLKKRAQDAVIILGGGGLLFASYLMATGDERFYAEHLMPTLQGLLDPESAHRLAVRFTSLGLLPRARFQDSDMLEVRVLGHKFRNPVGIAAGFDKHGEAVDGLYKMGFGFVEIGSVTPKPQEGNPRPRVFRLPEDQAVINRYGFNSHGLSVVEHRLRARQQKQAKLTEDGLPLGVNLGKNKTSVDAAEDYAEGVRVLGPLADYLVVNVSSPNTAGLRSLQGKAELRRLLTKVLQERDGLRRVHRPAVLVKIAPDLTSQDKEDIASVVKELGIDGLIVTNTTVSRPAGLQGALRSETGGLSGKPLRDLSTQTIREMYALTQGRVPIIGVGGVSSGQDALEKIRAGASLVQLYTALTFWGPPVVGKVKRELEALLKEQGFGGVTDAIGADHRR

In the case of `CCOC(=O)/C(C#N)=C\Nc1cccc(-c2ccccc2)c1`, the Selectivity ratio in data set [1] was 10. In data set [2], the IC50 stood at 220 µM and the Ki was 0.027 µM.
On to `Cc1c(C(=O)Nc2cc(Cl)cc(Cl)c2)cccc1[N+](=O)[O-]`, for which the result in data set [3] was inactive. Moreover, the Selectivity ratio in data set [1] turned out to be 2280. For the same molecule, the values for the Ki in data set [2] and in data set [4] were 64.4 µM and 0.03 µM, respectively. The IC50 in data set [4] is 0.23 µM.
On to `C/C(O)=C(\C#N)C(=O)Nc1ccc(C(F)(F)F)cc1`, for which, in data set [3], the outcome was inactive.
As to `Cc1cc(Br)ccc1NC(=O)c1ccc2ccccc2c1`, the result in data set [3] was inactive. For the same molecule, the Selectivity ratio in data set [1] came to 2310. In addition, in data set [2], the Ki was determined as 50.9 µM. In addition, in data set [4], the IC50 turned out to be 0.18 µM and the Ki was found to be 0.02 µM.
Regarding `CCOC(=O)C(=CNc1ccc(-c2ccccc2)cc1)C(=O)OCC`, the IC50 in data set [2] and in data set [4] was more than 500 µM throughout.
Regarding `CCOC(=O)C(=CNc1ccc(C)cc1)C(=O)OCC`, the inhibition in data set [5] is more than 10%. Besides, the Selectivity ratio in data set [1] turned out to be 4. The figures for the IC50 in data set [2] and in data set [4] were 146 µM and 40 µM, respectively. The Ki in data set [2] was 17.9 µM; in data set [4], 4.6 µM.
Take `CCOC(=O)C(=CNc1ccccc1C)C(=O)OCC`: the inhibition in data set [5] was more than 10%. Further, the Selectivity ratio in data set [1] was determined as 1. Further, in data set [2], the IC50 was determined as 292 µM and the Ki came to 35.9 µM. Moreover, in data set [4], the 50% inhibitory concentration (IC50) worked out at 346 µM and the Ki came out at 39.7 µM.
Consider `CCOC(=O)/C(C#N)=C\Nc1ccc(-c2ccccc2)cc1`, for which the IC50 in data set [2] and in data set [4] was more than 500 µM in each case.
For the molecule `CCOC(=O)C(=CNc1ccc2sc3ccccc3c2c1)C(=O)OCC`, in data set [5], the inhibition is more than 10%. Also, the Selectivity ratio in data set [1] came out at 182. Also, the IC50 in data set [2] was determined as 29.6 µM; in data set [4], 0.16 µM; in the data set with Plasmodium falciparum it was 1.8 µM. For the same molecule, the Ki in data set [2] turned out to be 3.63 µM; in data set [4], 0.02 µM.
Consider `CCOC(=O)C(=CNc1cccc(-c2ccccc2)c1)C(=O)OCC`, for which the Selectivity ratio in data set [1] turned out to be 1. For the same molecule, the IC50 in data set [2] came out at 104 µM; in data set [4], 86.7 µM. The inhibition constant (Ki) amounted to 12.8 µM in data set [2] and 10 µM in data set [4].
In the case of `CCOC(=O)C(=CNc1ccc2[nH]cnc2c1)C(=O)OCC`, the inhibition in data set [5] was more than 10%. Also, the 50% inhibitory concentration (IC50) was more than 500 µM in data set [2] and 349 µM in data set [4]. Also, in data set [4], the Ki is 40.2 µM.
Turning to `CCOC(=O)C(=CNc1ccc2[nH]ncc2c1)C(=O)OCC`, in data set [5], the inhibition was more than 10%. Besides, in data set [1], the Selectivity ratio was found to be 5. The IC50 in data set [2] amounted to 123 µM; in data set [4], 27.8 µM. Besides, the Ki is 15.1 µM in data set [2] and 3.2 µM in data set [4].
Consider `CCOC(=O)/C(C#N)=C\Nc1ccc2c(c1)c1ccccc1n2CC`, for which, in data set [5], the inhibition is more than 10%. In addition, the Selectivity ratio in data set [1] came to 1210. The IC50 in data set [2] came out at 491 µM; in data set [4], 0.44 µM; in the data set on Plasmodium falciparum it was 4 µM. Besides, the Ki in data set [2] came to 60.4 µM; in data set [4], 0.05 µM.

B1: Dihydroorotate dehydrogenase (Plasmodium falciparum), Q54A96 (protein)
chain: T1 sequence (whole entry) with A188F
As for B1, the figures for the Km in data set [6] and in data set [7] were 31.4 µM and 13.4 µM, respectively.

A word on the IC50: it is the concentration at which inhibition is half-maximal. As usually defined, the Ki is the equilibrium dissociation constant of an inhibitor or competing ligand from its target. As usually defined, the inhibition is how much of the control response was suppressed. A word on the Km: it is the concentration of substrate that gives half-maximal velocity.

Values taken from ChEMBL document CHEMBL1139229, “Design and synthesis of potent inhibitors of the malaria parasite dihydroorotate dehydrogenase” (J Med Chem, 2007).
